Experimental data from US11512042B2, “Enamine compounds for absorbance of electromagnetic energy” (Commonwealth Scientific and Industrial Research Organisation, priority 2015, dated 2022).
“And” between values parts separate entries of the source, which are not always exact repeats. Equal values may be shown once.

Columns and labels:
Assay type in all cases: physicochemical
[1] = UV absorbance spectrum in solution (λmax, λcrit, extinction coefficients); details: for λcrit: critical wavelength; for E (1%, 1 cm): mass extinction coefficient; for ε: molar extinction coefficient, in M-1 cm-1 (unit assumed)
In short: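 Spectra taken on 0.001% solutions in methanol, 10 mm path. Breakthrough is the wavelength where transmittance rises above 1%; steepness is the nm span over which transmittance goes from 1 to 80%.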

[2] = % transmission spectrum of 0.1% solution (breakthrough, steepness); details: for Steepness: distance in nm over which transmittance increases from 1 to 80%; for Breakthrough (1% T at 0.1%): value in nm where transmittance increases beyond 1%, 0.1% solution
In short: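 Transmission was recorded for 0.1% methanol solutions in a 2 mm cuvette. Breakthrough is the wavelength (nm) at which transmittance exceeds 1%; steepness is the nm span over which transmittance rises from 1 to 80%. Some values are averages of multiple measurements.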

[3] = Photostability protocol: thin film irradiated with xenon arc lamp; details: 1 hour xenon arc lamp, ratio of absorbance at λmax irradiated vs unirradiated, ^a = average of multiple measurements
In short: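 A 3% solution in EtOH/triglyceride/alkyl benzoate is dried on glass slides into a liquid film of 1.5 mg compound. Films are irradiated 1 h with a Pyrex-filtered 150 W xenon arc lamp (about 100 MED, below 30° C). Washings are read by UV; stability is absorbance at λmax relative to unirradiated film.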

Row | λmax [1] [nm] | λcrit [1] [nm] | E (1%, 1 cm) [1] | ε [1] | Steepness [2] [nm] | Breakthrough (1% T at 0.1%) [2] [nm] | Photostability [3] | Structure (SMILES)
1 | 368 | 385 | 1307 | 49288 | 16 | 402 | 68% | COC(=O)c1ccc2c(c1)CCN2C=C(C(=O)C(C)(C)C)c1ccc(C)cc1 [Compound 295]
2 | 368 | 384 | 1213 | 50838 | 16 | 401 | 73% | COC(=O)c1ccc2c(c1)CCN2C=C(C(=O)C(C)(C)C)c1ccc(C(C)(C)C)cc1 [Compound 296]
3 | 367 | 384 | 1189 | 54826 | 16 | 400 | 81% and 83% | CCCCC(CC)COC(=O)c1ccc2c(c1)CCN2C=C(C(=O)C(C)(C)C)c1ccccc1 (centres unmarked) [Compound 300]
4 | 369 | 382 | 1164 | 60921 | 24 | 399 | 94% and 93% | CCCCC(CC)COC(=O)c1ccc2c(c1)CCN2C=C(C(=O)c1c(C)cc(C)cc1C)c1ccccc1 (centres unmarked) [Compound 303]
5 | 365 | 384 | 1023 | 75535 | 19 | 401 | 90% and 92% | CC(C)(C)C(=O)/C(=C/N1CCc2cc(C(=O)OCCCOC(=O)c3ccc4c(c3)CCN4/C=C(/C(=O)C(C)(C)C)c3ccccc3)ccc21)c1ccccc1 [Compound 304]
6 | 375 | 391 | 1078 | 48709 | 23 | 417 | 80% and 75% | COC(=O)c1ccc2c(c1)CCN2/C=C(/C(=O)C(=O)N1CCc2ccccc21)c1ccccc1 [Compound 305]
7 | 370 | 384 | 1251 | 107885 | 22 | 402 | 98, 98% | Cc1cc(C)c(C(=O)/C(=C\N2CCc3cc(C(=O)OCCCOC(=O)c4ccc5c(c4)CCN5/C=C(/C(=O)c4c(C)cc(C)cc4C)c4ccccc4)ccc32)c2ccccc2)c(C)c1 [Compound 307]
8 | 374 | 391 | 796 | 38378 | 41 | 431 | 79% | CCCCC(CC)COC(=O)c1ccc2c(c1)CCN2/C=C(/C(=O)c1ccncc1)c1ccccc1 (centres unmarked) [Compound 308]
9 | 366 | 384 | 780 | 42050 | 19 | 397 | 80% | CCCCC(CC)COC(=O)c1ccc2c(c1)CCN2/C=C(/C(=O)C(C)(C)C)c1ccc(Br)cc1 (centres unmarked) [Compound 309]
10 | 368 | 385 | 1039 | 50502 | 22 | 402 | 78% and 81% | CCCCC(CC)COC(=O)c1ccc2c(c1)CCN2/C=C(/C(=O)C(C)(C)C)c1ccc(C#N)cc1 (centres unmarked) [Compound 310]

Row | Structure (SMILES) | λmax [1] [nm] | λcrit [1] [nm] | E (1%, 1 cm) [1] | ε [1] | Steepness [2] [nm] | Breakthrough (1% T at 0.1%) [2] [nm] | Photostability [3]
11 | COC(=O)c1ccc2c(c1)CCN2/C=C(/C(=O)c1ccccc1O[Si](C)(C)C(C)(C)C)c1ccccc1 [Compound 302] | 369 | 384 | 1089 | 55852 | 26 | 01 | 45%
